Reference: ChEMBL document CHEMBL4311992, “Discovery of 3-(((9H-purin-6-yl)amino)methyl)-4,6-dimethylpyridin-2(1H)-one derivatives as novel tubulin polymerization inhibitors for treatment of cancer” (Eur J Med Chem, 2019)
Activity calls are given as the source filed them. No cut-off for these calls is given here.

What was measured:
[1] = test system: HT-29; assay: Antiproliferative activity against human HT-29 cells assessed as reduction in cell viability after 72 hrs by MTT assay; assay type: functional, cell-based; conditions: HT-29, 72 h
[2] = target: TRAF2 and NCK-interacting protein kinase (Homo sapiens) (UniProt Q9UKE5); assay: Inhibition of human TNIK (1 to 367 residues) using RLGRDKYKTLRQIRQ as substrate measured after 40 mins in presence of [gamma33P]ATP by scintillation counting method; set-up: scale not given: the % may be the effect or the level left
[3] = target: Mitogen-activated protein kinase 14 (Homo sapiens) (UniProt Q16539); assay: Inhibition of recombinant full-length human SAPK2a assessed as residual activity at 10 uM using myelin basic protein as substrate measured after 40 mins in presence of [gamma33P]ATP by scintillation counting method
[4] = target: Insulin receptor-related protein (Homo sapiens) (UniProt P14616); assay: Inhibition of recombinant human IRR (943 to 1266 residues) assessed as residual activity at 10 uM using myelin basic protein as substrate measured after 40 mins in presence of [gamma33P]ATP by scintillation counting method
[5] = target: Inhibitor of nuclear factor kappa-B kinase subunit epsilon (Homo sapiens) (UniProt Q14164); assay: Inhibition of recombinant full-length human IKKepsilon assessed as residual activity at 10 uM using casein as substrate measured after 40 mins in presence of [gamma33P]ATP by scintillation counting method
[6] = target: Insulin-like growth factor 1 receptor (Homo sapiens) (UniProt P08069); assay: Inhibition of recombinant human IGF1R (959 to end residues) assessed as residual activity at 10 uM using KKKSPGEYVNIEFG as substrate measured after 40 mins in presence of [gamma33P]ATP by scintillation counting method
[7] = target: ALK tyrosine kinase receptor (Homo sapiens) (UniProt Q9UM73); assay: Inhibition of recombinant human ALK (1058 to end residues) assessed as residual activity at 10 uM using KKKSPGEYVNIEF as substrate measured after 40 mins in presence of [gamma33P]ATP by scintillation counting method
[8] = target: CDK7/Cyclin H/MNAT1 (Homo sapiens) (UniProt P51946+P50613+P51948); assay: Inhibition of recombinant full length human CDK7/cyclin H/MAT1 assessed as residual activity at 10 uM using peptide substrate measured after 40 mins in presence of [gamma33P]ATP by scintillation counting method; assay type: protein-complex assay
[9] = target: CDK12/Cyclin K (Homo sapiens) (UniProt O75909+Q9NYV4); assay: Inhibition of recombinant full length human CDK12/cyclinK assessed as residual activity at 10 uM using RSRSRSRSRSRSRSR as substrate measured after 120 mins in presence of [gamma33P]ATP by scintillation counting method; assay type: protein-complex assay
[10] = target: Dual specificity protein kinase CLK4 (Homo sapiens) (UniProt Q9HAZ1); assay: Inhibition of recombinant human CLK4 (128 to end residues) assessed as residual activity at 10 uM using YRRAAVPPSPSLSRHSSPHQS(p)EDEEE as substrate measured after 40 mins in presence of [gamma33P]ATP by scintillation counting method
[11] = test system: HCT-116; assay: Cell cycle arrest in human HCT116 cells assessed as up regulation of CyclinB1 expression up to 150 nM after 24 hrs by Western blot analysis; assay type: functional, cell-based
[12] = test system: HCT-116; assay: Antitumor activity against human HCT116 cells xenografted in nude BALB/c mouse assessed as reduction in tumor weight at 40 mg/kg, po administered once daily for 4 weeks measured every 3 days during compound dosing; assay type: functional, organism-based
[13] = Hepatotoxicity in nude BALB/c mouse at 80 mg/kg, po administered once daily for 4 weeks measured post-last dose by hematoxylin and eosin staining-based assay; assay type: toxicity, organism-based; conditions: in vivo, 672 h
[14] = test system: Discoidin domain-containing receptor 2 (Homo sapiens), Q16832 [UNDEFINED MUTATION]; assay: Inhibition of recombinant human DDR2 S642A mutant (467 to end residues) assessed as residual activity at 10 uM using KKSRGDYMTMQIG as substrate measured after 40 mins in presence of [gamma33P]ATP by scintillation counting method
[15] = target: Ephrin type-A receptor 4 (Homo sapiens) (UniProt P54764); assay: Inhibition of recombinant human EphA4 (601 to 892 residues) assessed as residual activity at 10 uM using poly(Glu, Tyr) 4:1 as substrate measured after 40 mins in presence of [gamma33P]ATP by scintillation counting method
[16] = target: Serine/threonine-protein kinase haspin (Homo sapiens) (UniProt Q8TF76); assay: Inhibition of recombinant human haspin (471 to end residues) assessed as residual activity at 10 uM using RARTLSFAEPG as substrate measured after 40 mins in presence of [gamma33P]ATP by scintillation counting method
[17] = target: Mitogen-activated protein kinase kinase kinase kinase 3 (Homo sapiens) (UniProt Q8IVH8); assay: Inhibition of recombinant human MAP4K3 (1 to 291 residues) assessed as residual activity at 10 uM using RLGRDKYKTLRQIRQ as substrate measured after 40 mins in presence of [gamma33P]ATP by scintillation counting method
[18] = target: Phosphorylase b kinase gamma catalytic chain, skeletal muscle/heart isoform (Homo sapiens) (UniProt Q16816); assay: Inhibition of recombinant full-length human PhKgamma1 assessed as residual activity at 10 uM using KKLNRTLSFAEPG as substrate measured after 120 mins in presence of [gamma33P]ATP by scintillation counting method
[19] = target: Serine/threonine-protein kinase PRP4 homolog (Homo sapiens) (UniProt Q13523); assay: Inhibition of human PRP4 (663 to end residues) using casein as substrate measured after 40 mins in presence of [gamma33P]ATP by scintillation counting method; set-up: scale not given: the % may be the effect or the level left
[20] = organism: Homo sapiens; assay: Inhibition of human Ros V2262A mutant (1883 to end residues) using KKKSPGEYVNIEFG as substrate measured after 40 mins in presence of [gamma33P]ATP by scintillation counting method; set-up: scale not given: the % may be the effect or the level left
[21] = target: Serine/threonine-protein kinase 33 (Homo sapiens) (UniProt Q9BYT3); assay: Inhibition of recombinant full-length human STK33 assessed as residual activity at 10 uM using myelin basic protein as substrate measured after 40 mins in presence of [gamma33P]ATP by scintillation counting method
[22] = organism: Homo sapiens; assay: Inhibition of recombinant full-length human ATRIP/ATR M211T mutant assessed as residual activity at 10 uM using GST-cMyc-p53 as substrate measured after 40 mins by fluorescence assay
[23] = Toxicity in nude BALB/c mouse assessed as change in globulin level at 40 to 80 mg/kg, po once daily for 4 weeks measured post-last dose; assay type: organism-based; conditions: in vivo, 672 h
[24] = test system: SW-620; assay: Induction of apoptosis in human SW620 cells assessed as early apoptotic cells at 25 nM measured after 48 hrs by Annexin V-FITC/propidium iodide staining-based flow cytometry (reference value: 0.773%); assay type: functional
[25] = target: Tubulin (Sus scrofa) (UniProt P02554+P02550); assay: Inhibition of porcine brain tubulin polymerization at 0.05 to 30 uM by fluorescence assay

Sequence of TRAF2 and NCK-interacting protein kinase (Homo sapiens) (Q9UKE5 whole entry, looked up, the tested form may be a part): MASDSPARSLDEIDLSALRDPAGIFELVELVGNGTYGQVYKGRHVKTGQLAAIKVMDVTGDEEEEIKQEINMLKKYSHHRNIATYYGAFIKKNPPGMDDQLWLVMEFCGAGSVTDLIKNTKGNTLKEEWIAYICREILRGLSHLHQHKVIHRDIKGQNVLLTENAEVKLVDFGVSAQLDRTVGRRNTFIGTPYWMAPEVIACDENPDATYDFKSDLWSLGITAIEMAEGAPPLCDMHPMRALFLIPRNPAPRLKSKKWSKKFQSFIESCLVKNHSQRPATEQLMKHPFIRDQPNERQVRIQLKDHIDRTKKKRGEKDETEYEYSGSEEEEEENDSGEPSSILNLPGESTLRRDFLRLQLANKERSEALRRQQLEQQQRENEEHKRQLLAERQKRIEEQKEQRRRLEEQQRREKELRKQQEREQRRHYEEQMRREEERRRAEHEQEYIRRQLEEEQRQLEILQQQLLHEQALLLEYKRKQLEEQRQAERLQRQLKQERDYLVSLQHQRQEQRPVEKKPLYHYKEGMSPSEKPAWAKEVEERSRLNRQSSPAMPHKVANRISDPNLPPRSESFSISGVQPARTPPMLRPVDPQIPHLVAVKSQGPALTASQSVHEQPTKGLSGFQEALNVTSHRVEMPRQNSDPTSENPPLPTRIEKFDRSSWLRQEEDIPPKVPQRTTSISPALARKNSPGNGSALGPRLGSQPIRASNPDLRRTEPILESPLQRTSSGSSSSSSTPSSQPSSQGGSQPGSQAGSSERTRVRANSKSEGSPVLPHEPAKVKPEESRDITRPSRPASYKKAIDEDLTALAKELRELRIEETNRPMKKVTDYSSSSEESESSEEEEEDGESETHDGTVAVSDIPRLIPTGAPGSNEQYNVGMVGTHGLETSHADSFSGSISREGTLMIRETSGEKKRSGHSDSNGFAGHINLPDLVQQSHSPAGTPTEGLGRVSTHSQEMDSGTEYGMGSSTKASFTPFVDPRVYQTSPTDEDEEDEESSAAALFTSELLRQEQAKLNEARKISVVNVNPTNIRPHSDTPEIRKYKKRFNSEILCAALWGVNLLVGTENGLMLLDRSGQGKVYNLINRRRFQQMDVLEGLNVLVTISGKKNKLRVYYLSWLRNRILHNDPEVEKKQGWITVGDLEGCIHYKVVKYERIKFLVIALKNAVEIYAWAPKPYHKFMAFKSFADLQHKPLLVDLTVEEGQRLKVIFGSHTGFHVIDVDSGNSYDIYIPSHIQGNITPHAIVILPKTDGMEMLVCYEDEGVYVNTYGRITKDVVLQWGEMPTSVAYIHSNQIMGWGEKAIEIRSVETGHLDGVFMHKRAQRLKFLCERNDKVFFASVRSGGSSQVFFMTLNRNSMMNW
Sequence of Inhibitor of nuclear factor kappa-B kinase subunit epsilon (Homo sapiens) (Q14164 whole entry): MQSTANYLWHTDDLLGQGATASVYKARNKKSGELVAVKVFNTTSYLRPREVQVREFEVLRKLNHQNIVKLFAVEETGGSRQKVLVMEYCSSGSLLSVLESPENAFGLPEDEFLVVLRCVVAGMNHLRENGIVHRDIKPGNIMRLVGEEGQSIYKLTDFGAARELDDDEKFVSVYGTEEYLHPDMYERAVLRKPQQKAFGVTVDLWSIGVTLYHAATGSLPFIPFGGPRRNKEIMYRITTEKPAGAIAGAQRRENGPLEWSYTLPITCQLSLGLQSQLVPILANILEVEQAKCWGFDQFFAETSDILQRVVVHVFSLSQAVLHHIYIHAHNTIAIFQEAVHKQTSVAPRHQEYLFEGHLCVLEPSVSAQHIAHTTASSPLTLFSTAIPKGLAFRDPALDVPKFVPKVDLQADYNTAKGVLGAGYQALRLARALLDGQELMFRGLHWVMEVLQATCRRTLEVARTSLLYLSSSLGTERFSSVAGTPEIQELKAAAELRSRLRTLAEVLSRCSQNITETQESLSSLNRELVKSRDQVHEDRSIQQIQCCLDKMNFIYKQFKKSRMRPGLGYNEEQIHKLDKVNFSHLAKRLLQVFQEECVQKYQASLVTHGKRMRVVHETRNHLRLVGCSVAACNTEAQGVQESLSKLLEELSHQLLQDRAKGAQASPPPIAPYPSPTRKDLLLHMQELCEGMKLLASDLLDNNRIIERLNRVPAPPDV
Sequence of Phosphorylase b kinase gamma catalytic chain, skeletal muscle/heart isoform (Homo sapiens) (Q16816 whole entry, looked up, canonical isoform): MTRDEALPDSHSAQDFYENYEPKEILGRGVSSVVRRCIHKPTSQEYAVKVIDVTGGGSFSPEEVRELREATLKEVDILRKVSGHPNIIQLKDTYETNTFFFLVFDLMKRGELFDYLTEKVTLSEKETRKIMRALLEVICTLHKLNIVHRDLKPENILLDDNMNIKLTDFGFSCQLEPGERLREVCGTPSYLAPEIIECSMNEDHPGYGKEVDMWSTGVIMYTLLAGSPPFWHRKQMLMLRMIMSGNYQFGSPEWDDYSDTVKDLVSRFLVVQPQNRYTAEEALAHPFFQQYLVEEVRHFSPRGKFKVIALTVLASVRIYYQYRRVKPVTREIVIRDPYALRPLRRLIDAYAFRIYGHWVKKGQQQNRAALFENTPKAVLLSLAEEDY
Sequence of Serine/threonine-protein kinase haspin (Homo sapiens) (Q8TF76 whole entry, the tested form may be a part): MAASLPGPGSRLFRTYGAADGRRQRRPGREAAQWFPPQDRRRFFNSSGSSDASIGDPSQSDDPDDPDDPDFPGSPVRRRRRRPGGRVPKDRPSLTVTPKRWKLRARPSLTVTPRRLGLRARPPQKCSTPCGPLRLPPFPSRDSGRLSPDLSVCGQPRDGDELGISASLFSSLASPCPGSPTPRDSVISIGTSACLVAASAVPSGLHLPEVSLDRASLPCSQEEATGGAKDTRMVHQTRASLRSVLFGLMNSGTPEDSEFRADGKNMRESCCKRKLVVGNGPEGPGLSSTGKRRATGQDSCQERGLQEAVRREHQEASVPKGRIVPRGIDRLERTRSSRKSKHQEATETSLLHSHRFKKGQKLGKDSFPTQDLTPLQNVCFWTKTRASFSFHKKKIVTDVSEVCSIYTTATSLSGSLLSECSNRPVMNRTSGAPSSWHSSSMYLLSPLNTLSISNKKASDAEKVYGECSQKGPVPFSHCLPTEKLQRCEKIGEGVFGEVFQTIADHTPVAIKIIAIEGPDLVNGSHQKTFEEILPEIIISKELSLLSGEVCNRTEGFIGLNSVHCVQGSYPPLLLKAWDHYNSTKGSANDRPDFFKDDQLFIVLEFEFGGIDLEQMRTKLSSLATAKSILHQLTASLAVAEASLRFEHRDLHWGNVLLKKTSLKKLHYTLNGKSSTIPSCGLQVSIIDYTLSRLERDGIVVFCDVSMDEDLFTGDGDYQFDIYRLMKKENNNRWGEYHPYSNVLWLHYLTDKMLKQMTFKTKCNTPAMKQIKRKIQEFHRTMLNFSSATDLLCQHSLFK
Sequence of Dual specificity protein kinase CLK4 (Homo sapiens) (Q9HAZ1 whole entry, looked up): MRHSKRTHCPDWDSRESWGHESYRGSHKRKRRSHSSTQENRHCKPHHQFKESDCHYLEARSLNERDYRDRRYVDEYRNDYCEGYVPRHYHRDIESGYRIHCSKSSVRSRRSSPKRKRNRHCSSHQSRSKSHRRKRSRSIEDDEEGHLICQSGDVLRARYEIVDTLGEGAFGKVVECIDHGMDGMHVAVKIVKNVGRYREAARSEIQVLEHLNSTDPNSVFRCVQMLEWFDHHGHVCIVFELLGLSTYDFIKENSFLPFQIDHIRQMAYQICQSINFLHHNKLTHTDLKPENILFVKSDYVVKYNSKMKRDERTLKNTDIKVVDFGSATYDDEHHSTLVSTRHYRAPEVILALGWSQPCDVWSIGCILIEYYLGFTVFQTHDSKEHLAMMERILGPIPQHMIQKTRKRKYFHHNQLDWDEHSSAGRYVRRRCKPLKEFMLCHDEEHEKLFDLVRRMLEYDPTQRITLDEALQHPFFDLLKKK
Sequence of Serine/threonine-protein kinase 33 (Homo sapiens) (Q9BYT3 whole entry, looked up): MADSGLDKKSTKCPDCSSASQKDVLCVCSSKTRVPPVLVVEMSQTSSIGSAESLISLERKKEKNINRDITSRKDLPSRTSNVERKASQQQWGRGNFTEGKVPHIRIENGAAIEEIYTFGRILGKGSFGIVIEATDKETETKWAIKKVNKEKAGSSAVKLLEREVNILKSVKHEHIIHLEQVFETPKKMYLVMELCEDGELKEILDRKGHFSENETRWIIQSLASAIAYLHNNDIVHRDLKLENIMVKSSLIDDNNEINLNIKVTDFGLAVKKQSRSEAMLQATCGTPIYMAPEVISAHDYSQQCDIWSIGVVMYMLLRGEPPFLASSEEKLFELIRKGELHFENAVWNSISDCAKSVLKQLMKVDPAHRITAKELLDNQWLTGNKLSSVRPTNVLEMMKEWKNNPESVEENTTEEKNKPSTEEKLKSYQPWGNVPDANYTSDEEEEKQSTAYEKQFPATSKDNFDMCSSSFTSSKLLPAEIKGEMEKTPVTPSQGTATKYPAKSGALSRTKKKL
Sequence of Mitogen-activated protein kinase 14 (Homo sapiens) (Q16539 whole entry, the tested form may be a part): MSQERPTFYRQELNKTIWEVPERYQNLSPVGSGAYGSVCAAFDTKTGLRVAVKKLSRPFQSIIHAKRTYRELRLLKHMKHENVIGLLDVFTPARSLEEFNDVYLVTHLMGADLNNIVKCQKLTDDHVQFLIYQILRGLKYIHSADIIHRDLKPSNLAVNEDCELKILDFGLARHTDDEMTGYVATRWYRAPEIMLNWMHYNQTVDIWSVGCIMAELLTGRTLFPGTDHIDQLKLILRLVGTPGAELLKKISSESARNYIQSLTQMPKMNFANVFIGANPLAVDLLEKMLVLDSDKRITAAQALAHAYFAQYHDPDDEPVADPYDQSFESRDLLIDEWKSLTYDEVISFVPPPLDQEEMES

Cc1cc(C)c(CNc2nc(Cl)nc3c2ncn3C2CCCC2)c(=O)[nH]1
IC50 [1]: 71 nM
Activity [2]: 108%
Activity [3]: 109%
Activity [4]: 102%
Activity [5]: 98.5%
Activity [6]: 81%
Activity [7]: 112%
Activity [8]: 101%
Activity [9]: 104%
Activity [10]: 98.5%
Activity [11]: Active
Activity [12]: Active
Activity [13]: Non-Toxic
Activity [14]: 97%
Activity [15]: 100%
Activity [16]: 89%
Activity [17]: 104%
Activity [18]: 104%
Activity [19]: 93%
Activity [20]: 102%
Activity [21]: 86.5%
Activity [22]: 106%
Activity [23]: Non-Toxic
Activity [24]: 1.22%
inhibition [25]: Active
